Measurements as given in ChEMBL document CHEMBL1201862, “PubChem BioAssay data set” (2004).
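Exposure lasted 48 hours, with cells grown in 96-well plates and compounds tested at five concentrations. Here, GI50 denotes the concentration required for 50% inhibition of growth.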 The source made the active and inactive calls. Rule as the data show it: active = GI50 up to about 1.1 µM and inactive = higher.

Tests used:
Experiment in all cases: NCI tumour cell line growth inhibition, 48 h
HOP-92 = system: HOP-92
DU-145 = system: DU-145
SNB-75 = system: SNB-75
NCI-H226 = system: NCI-H226
HL-60 = system: HL-60
786-0 = system: 786-0
CCRF-CEM = system: CCRF-CEM
A498 = system: A498
K562 = system: K562
HOP-62 = system: HOP-62
OVCAR-3 = system: OVCAR-3
MDA-MB-231 = system: MDA-MB-231
KM12 = system: KM12
UO-31 = system: UO-31
M14 = system: M14
OVCAR-8 = system: OVCAR-8
SK-MEL-5 = system: SK-MEL-5
T47D = system: T47D
UACC-257 = system: UACC-257
SF-295 = system: SF-295
SF-268 = system: SF-268
BT-549 = system: BT-549
COLO 205 = system: COLO 205
OVCAR-5 = system: OVCAR-5
CAKI-1 = system: CAKI-1
SNB-19 = system: SNB-19
TK-10 = system: TK-10
SR = system: SR
MDA-N = system: MDA-N
SF-539 = system: SF-539
MDA-MB-435 = system: MDA-MB-435
PC-3 = system: PC-3
SN12C = system: SN12C
LOX IMVI = system: LOX IMVI
IGROV-1 = system: IGROV-1
NCI-H460 = system: NCI-H460
MCF7 = system: MCF7
UACC-62 = system: UACC-62
ACHN = system: ACHN
SK-OV-3 = system: SK-OV-3
A549 = system: A549
NCI-H23 = system: NCI-H23
SK-MEL-28 = system: SK-MEL-28
HCT-116 = system: HCT-116
EKVX = system: EKVX
OVCAR-4 = system: OVCAR-4
Malme-3M = system: Malme-3M
SK-MEL-2 = system: SK-MEL-2
HCT-15 = system: HCT-15
U-251 = system: U-251
RXF 393 = system: RXF 393
RPMI-8226 = system: RPMI-8226
NCI-H522 = system: NCI-H522
NCI/ADR-RES = system: NCI/ADR-RES
HCC 2998 = system: HCC 2998
SW-620 = system: SW-620
HT-29 = system: HT-29
MOLT-4 = system: MOLT-4
Hs-578T = system: Hs-578T
DMS-273 = system: DMS-273
KM-20L2 = system: KM-20L2
DMS-114 = system: DMS-114
LXFL 529 = system: LXFL 529
M19-MEL = system: M19-MEL
SNB-78 = system: SNB-78

For `C#CC1(O)CCC2[C@@H]3CCc4cc(Oc5nc(F)nc(-c6c(C)c(C(=O)OCC)n7ccccc67)n5)ccc4C3CC[C@@]21C` (some centres undefined), the GI50 (HOP-92) was > 100 µM (inactive), the GI50 (DU-145) was > 100 µM (inactive) and the GI50 (SNB-75) was > 100 µM (inactive). For the same compound, the GI50 (NCI-H226) was > 100 µM (inactive), the GI50 (HL-60) was > 100 µM (inactive) and the GI50 (786-0) was > 100 µM (inactive). For the same compound, the GI50 (CCRF-CEM) was 61 µM (inactive), the GI50 (A498) was > 100 µM (inactive) and the GI50 (K562) was 29.6 µM (inactive). The GI50 (HOP-62) was > 100 µM (inactive), the GI50 (OVCAR-3) was > 100 µM (inactive) and the GI50 (MDA-MB-231) was > 100 µM (inactive). For the same compound, the GI50 (KM12) was > 100 µM (inactive), the GI50 (UO-31) was > 100 µM (inactive) and the GI50 (M14) was > 100 µM (inactive). The GI50 (OVCAR-8) was > 100 µM (inactive), the GI50 (SK-MEL-5) was > 100 µM (inactive) and the GI50 (T47D) was > 100 µM (inactive). For the same compound, the GI50 (UACC-257) was > 100 µM (inactive), the GI50 (SF-295) was > 100 µM (inactive) and the GI50 (SF-268) was > 100 µM (inactive). For the same compound, the GI50 (BT-549) was > 100 µM (inactive), the GI50 (COLO 205) was > 100 µM (inactive) and the GI50 (OVCAR-5) was > 100 µM (inactive). The GI50 (CAKI-1) was > 100 µM (inactive), the GI50 (SNB-19) was > 100 µM (inactive) and the GI50 (TK-10) was > 100 µM (inactive). For the same compound, the GI50 (SR) was > 100 µM (inactive), the GI50 (MDA-N) was > 100 µM (inactive) and the GI50 (SF-539) was > 100 µM (inactive). The GI50 (MDA-MB-435) was > 100 µM (inactive), the GI50 (PC-3) was > 100 µM (inactive) and the GI50 (SN12C) was > 100 µM (inactive). The GI50 (LOX IMVI) was > 100 µM (inactive), the GI50 (IGROV-1) was > 100 µM (inactive) and the GI50 (NCI-H460) was > 100 µM (inactive). For the same compound, the GI50 (MCF7) was > 100 µM (inactive), the GI50 (UACC-62) was > 100 µM (inactive) and the GI50 (ACHN) was > 100 µM (inactive). The GI50 (SK-OV-3) was > 100 µM (inactive), the GI50 (A549) was > 100 µM (inactive) and the GI50 (NCI-H23) was > 100 µM (inactive). The GI50 (SK-MEL-28) was > 100 µM (inactive), the GI50 (HCT-116) was > 100 µM (inactive) and the GI50 (EKVX) was > 100 µM (inactive). The GI50 (OVCAR-4) was > 100 µM (inactive), the GI50 (Malme-3M) was > 100 µM (inactive) and the GI50 (SK-MEL-2) was > 100 µM (inactive). The GI50 (HCT-15) was over 100 µM, the GI50 (U-251) was > 100 µM (inactive) and the GI50 (RXF 393) was > 100 µM (inactive). The GI50 (RPMI-8226) was > 100 µM (inactive), the GI50 (NCI-H522) was > 100 µM (inactive) and the GI50 (NCI/ADR-RES) was > 100 µM (inactive). The GI50 (HCC 2998) was > 100 µM (inactive), the GI50 (SW-620) was > 100 µM (inactive) and the GI50 (HT-29) was > 100 µM (inactive). For the same compound, the GI50 (MOLT-4) was > 100 µM (inactive) and the GI50 (Hs-578T) was > 100 µM (inactive).
For `COC(=O)C(C(=O)C(=O)Nc1ccc(C(F)(F)F)cc1[N+](=O)[O-])c1csc(-n2nc(-c3ccccc3)cc2-c2ccccc2)n1` (centres undefined), the GI50 (DMS-273) was > 100 µM (inactive), the GI50 (SNB-75) was > 100 µM (inactive) and the GI50 (NCI-H226) was > 100 µM (inactive). The GI50 (HL-60) was > 100 µM (inactive), the GI50 (786-0) was > 100 µM (inactive) and the GI50 (KM-20L2) was > 100 µM (inactive). For the same compound, the GI50 (CCRF-CEM) was > 100 µM (inactive), the GI50 (A498) was > 100 µM (inactive) and the GI50 (K562) was > 100 µM (inactive). For the same compound, the GI50 (HOP-62) was > 100 µM (inactive), the GI50 (DMS-114) was > 100 µM (inactive) and the GI50 (OVCAR-3) was > 100 µM (inactive). The GI50 (KM12) was > 100 µM (inactive), the GI50 (UO-31) was > 100 µM (inactive) and the GI50 (LXFL 529) was > 100 µM (inactive). For the same compound, the GI50 (M14) was > 100 µM (inactive), the GI50 (OVCAR-8) was > 100 µM (inactive) and the GI50 (UACC-257) was > 100 µM (inactive). For the same compound, the GI50 (SF-295) was > 100 µM (inactive), the GI50 (COLO 205) was > 100 µM (inactive) and the GI50 (OVCAR-5) was > 100 µM (inactive). For the same compound, the GI50 (CAKI-1) was > 100 µM (inactive), the GI50 (M19-MEL) was > 100 µM (inactive) and the GI50 (SNB-19) was > 100 µM (inactive). The GI50 (TK-10) was > 100 µM (inactive), the GI50 (SR) was > 100 µM (inactive) and the GI50 (SF-539) was > 100 µM (inactive). For the same compound, the GI50 (SN12C) was > 100 µM (inactive), the GI50 (LOX IMVI) was > 100 µM (inactive) and the GI50 (IGROV-1) was > 100 µM (inactive). The GI50 (NCI-H460) was > 100 µM (inactive), the GI50 (UACC-62) was > 100 µM (inactive) and the GI50 (SK-OV-3) was > 100 µM (inactive). The GI50 (SNB-78) was > 100 µM (inactive), the GI50 (A549) was > 100 µM (inactive) and the GI50 (NCI-H23) was > 100 µM (inactive). The GI50 (HCT-116) was > 100 µM (inactive), the GI50 (OVCAR-4) was > 100 µM (inactive) and the GI50 (Malme-3M) was > 100 µM (inactive). For the same compound, the GI50 (SK-MEL-2) was > 100 µM (inactive), the GI50 (HCT-15) was over 100 µM and the GI50 (U-251) was > 100 µM (inactive). The GI50 (RXF 393) was > 100 µM (inactive), the GI50 (RPMI-8226) was > 100 µM (inactive) and the GI50 (NCI-H522) was > 100 µM (inactive). The GI50 (HCC 2998) was > 100 µM (inactive), the GI50 (SW-620) was > 100 µM (inactive) and the GI50 (HT-29) was > 100 µM (inactive). The GI50 (MOLT-4) was > 100 µM (inactive).
For `C=CCC1(CC)C(=O)NC(=O)NC1=O` [ETALLOBARBITAL], the GI50 (DMS-273) was > 100 µM (inactive), the GI50 (SNB-75) was > 100 µM (inactive) and the GI50 (NCI-H226) was > 100 µM (inactive). For the same compound, the GI50 (HL-60) was > 100 µM (inactive), the GI50 (786-0) was > 100 µM (inactive) and the GI50 (KM-20L2) was > 100 µM (inactive). The GI50 (CCRF-CEM) was > 100 µM (inactive), the GI50 (K562) was > 100 µM (inactive) and the GI50 (HOP-62) was > 100 µM (inactive). For the same compound, the GI50 (OVCAR-3) was > 100 µM (inactive), the GI50 (KM12) was > 100 µM (inactive) and the GI50 (UO-31) was > 100 µM (inactive). The GI50 (LXFL 529) was > 100 µM (inactive), the GI50 (M14) was > 100 µM (inactive) and the GI50 (OVCAR-8) was > 100 µM (inactive). For the same compound, the GI50 (UACC-257) was > 100 µM (inactive), the GI50 (SF-295) was > 10 µM (inactive) and the GI50 (SF-268) was > 100 µM (inactive). The GI50 (COLO 205) was > 100 µM (inactive), the GI50 (M19-MEL) was > 100 µM (inactive) and the GI50 (SNB-19) was > 100 µM (inactive). The GI50 (TK-10) was > 100 µM (inactive), the GI50 (SR) was > 100 µM (inactive) and the GI50 (SF-539) was > 100 µM (inactive). For the same compound, the GI50 (SN12C) was > 100 µM (inactive), the GI50 (LOX IMVI) was > 100 µM (inactive) and the GI50 (IGROV-1) was > 100 µM (inactive). For the same compound, the GI50 (NCI-H460) was > 100 µM (inactive), the GI50 (UACC-62) was > 100 µM (inactive) and the GI50 (ACHN) was > 100 µM (inactive). The GI50 (SK-OV-3) was > 100 µM (inactive), the GI50 (SNB-78) was > 100 µM (inactive) and the GI50 (A549) was > 100 µM (inactive). For the same compound, the GI50 (NCI-H23) was > 100 µM (inactive), the GI50 (SK-MEL-28) was > 100 µM (inactive) and the GI50 (HCT-116) was > 100 µM (inactive). The GI50 (EKVX) was > 100 µM (inactive), the GI50 (Malme-3M) was > 100 µM (inactive) and the GI50 (HCT-15) was over 100 µM. For the same compound, the GI50 (U-251) was > 100 µM (inactive), the GI50 (RXF 393) was > 100 µM (inactive) and the GI50 (RPMI-8226) was > 100 µM (inactive). For the same compound, the GI50 (NCI-H522) was > 100 µM (inactive), the GI50 (HCC 2998) was > 100 µM (inactive) and the GI50 (SW-620) was > 100 µM (inactive). The GI50 (MOLT-4) was > 100 µM (inactive).
